Target: T1, human PAH with the R408W mutation (Homo sapiens, UniProt P00439, R408W)
T1 construct: expressed in transfected cells
T1 sequence (P00439 1-452 R408W): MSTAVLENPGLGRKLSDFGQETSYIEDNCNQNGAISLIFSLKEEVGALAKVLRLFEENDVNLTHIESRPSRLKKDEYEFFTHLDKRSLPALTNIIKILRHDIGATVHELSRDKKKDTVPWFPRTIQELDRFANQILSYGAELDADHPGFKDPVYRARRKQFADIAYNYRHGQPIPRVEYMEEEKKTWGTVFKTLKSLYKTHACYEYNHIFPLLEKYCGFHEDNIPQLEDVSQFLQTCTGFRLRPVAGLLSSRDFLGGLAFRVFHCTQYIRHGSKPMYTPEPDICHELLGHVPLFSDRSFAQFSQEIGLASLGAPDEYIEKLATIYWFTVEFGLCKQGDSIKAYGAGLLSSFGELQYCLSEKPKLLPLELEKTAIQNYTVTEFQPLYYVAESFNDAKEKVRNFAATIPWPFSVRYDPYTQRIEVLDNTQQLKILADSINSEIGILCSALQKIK
Assay: Cell Based Phenylalanine Flux Assay;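 further: Ten-point dose curve from 2-fold serial dilutions, run in duplicate at 0.5% DMSO final, tracer step used 20 µM sepiapterin and 800 µM labeled phenylalanine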
Details: A375 cells expressing human R408W PAH; 24 hrs with compound, then sepiapterin and 13C9,15N-Phenylalanine for 4 hours; 13C-Tyrosine by LC-MS; average where tested multiple times; read-out: AC50

AC50 [µM]	SMILES
0.5 to 1	Cc1cccn2nc([C@@H]3c4nc[nH]c4CCN3c3nnc(-c4cccnc4F)o3)cc12 [Example 2264, (S)-2-(2-fluoropyridin-3-yl)-5-(4-(4-methylpyrazolo[1,5-a]pyridin-2-yl)-1,4,6,7-tetrahydro-5H-imidazo[4,5-c]pyridin-5-yl)-1,3,4-oxadiazole]
> 5	Cc1cccn2nc([C@H]3c4nc[nH]c4CCN3c3nnc(-c4cccnc4F)o3)cc12 [Example 2265, (R)-2-(2-fluoropyridin-3-yl)-5-(4-(4-methylpyrazolo[1,5-a]pyridin-2-yl)-1,4,6,7-tetrahydro-5H-imidazo[4,5-c]pyridin-5-yl)-1,3,4-oxadiazole]
< 0.5	Cc1cccnc1-c1nnc(N2CCc3[nH]cnc3[C@H]2c2cc3c(C(F)F)cccn3n2)o1 [Example 2279, (S)-2-(4-(4-(difluoromethyl)pyrazolo[1,5-a]pyridin-2-yl)-1,4,6,7-tetrahydro-5H-imidazo [4,5-c]pyridin-5-yl)-5-(3-methylpyridin-2-yl)-1,3,4-oxadiazole]
> 5	Cc1cccnc1-c1nnc(N2CCc3[nH]cnc3[C@@H]2c2cc3c(F)cccn3n2)o1 [Example 2281, (R)-2-(4-(4-fluoropyrazolo [1,5-a]pyridin-2-yl)-1,4,6,7-tetrahydro-5H-imidazo [4,5-c]pyridin-5-yl)-5-(3-methylpyridin-2-yl)-1,3,4-oxadiazole]
< 0.5	Cc1cccnc1-c1nnc(N2CCc3[nH]cnc3[C@H]2c2cc3c(Cl)cccn3n2)o1 [Example 2287]
> 5	Cc1cccnc1-c1nnc(N2CCc3[nH]cnc3[C@@H]2c2cc3cccc(Cl)n3n2)o1 [Example 2306, (R)-2-(4-(7-chloropyrazolo [1,5-a]pyridin-2-yl)-1,4,6,7-tetrahydro-5H-imidazo [4,5-c]pyridin-5-yl)-5-(3-methylpyridin-2-yl)-1,3,4-oxadiazole]
< 0.5	Cc1cccnc1-c1nnc(N2CCc3[nH]cnc3[C@H]2c2cc3cccc(Cl)n3n2)o1 [Example 2307, (S)-2-(4-(7-chloropyrazolo [1,5-a]pyridin-2-yl)-1,4,6,7-tetrahydro-5H-imidazo [4,5-c]pyridin-5-yl)-5-(3-methylpyridin-2-yl)-1,3,4-oxadiazole]
> 5	Cc1cccc(-c2nnc(N3CCc4[nH]cnc4[C@@H]3c3cc4c(C)cccn4n3)o2)n1 [Example 2344]

Second part, the compound before the results:

SMILES	AC50 [µM]
FC(F)Oc1cccn2nc([C@@H]3c4nc[nH]c4CCN3c3ccc(C(F)(F)F)cn3)cc12 [Example 2272, (S)-4-(4-(difluoromethoxy)pyrazolo[1,5-a]pyridin-2-yl)-5-(5-(trifluoromethyl)pyridin-2-yl)-4,5,6,7-tetrahydro-1H-imidazo[4,5-c]pyridine]	< 0.5
Cc1cc(-c2nnc(C(=O)N3CCc4[nH]cnc4[C@H]3c3cc4c(F)cccn4n3)o2)n[nH]1 [Example 2295, (S)-(4-(4-fluoropyrazolo [1,5-a]pyridin-2-yl)-1,4,6,7-tetrahydro-5H-imidazo[4,5-c]pyridin-5-yl)(5-(5-methyl-1H-pyrazol-3-yl)-1,3,4-oxadiazol-2-yl)methanone]	0.5 to 1
Cc1c[nH]nc1-c1nnc(C(=O)N2CCc3[nH]cnc3[C@H]2c2cc3c(F)cccn3n2)o1 [Example 2296, (S)-(4-(4-fluoropyrazolo [1,5-a]pyridin-2-yl)-1,4,6,7-tetrahydro-5H-imidazo[4,5-c]pyridin-5-yl)(5-(4-methyl-1H-pyrazol-3-yl)-1,3,4-oxadiazol-2-yl)methanone]	< 0.5
Cc1c[nH]nc1-c1nnc(C(=O)N2CCc3[nH]cnc3[C@@H]2c2cc3c(F)cccn3n2)o1 [Example 2297, (R)-(4-(4-fluoropyrazolo [1,5-a]pyridin-2-yl)-1,4,6,7-tetrahydro-5H-imidazo[4,5-c]pyridin-5-yl)(5-(4-methyl-1H-pyrazol-3-yl)-1,3,4-oxadiazol-2-yl)methanone]	> 5
Cc1cccn2nc([C@H]3c4nc[nH]c4CCN3c3ccccc3)cc12 [Example 2310, (R)-4-(4-methylpyrazolo [1,5-a]pyridin-2-yl)-5-phenyl-4,5,6,7-tetrahydro-1H-imidazo[4,5-c]pyridine]	1 to 5
FC(F)Oc1cccn2nc([C@@H]3c4nc[nH]c4CCN3c3cnccn3)cc12 [Example 2319, (S)-4-(4-(difluoromethoxy)pyrazolo[1,5-a]pyridin-2-yl)-5-(pyrazin-2-yl)-4,5,6,7-tetrahydro-1H-imidazo[4,5-c]pyridine]	< 0.5
CC(C)c1nnc(N2CCc3[nH]cnc3[C@H]2c2cc3c(C(F)F)cccn3n2)o1 [Example 2321, (S)-2-(4-(4-(difluoromethyl)pyrazolo[1,5-a]pyridin-2-yl)-1,4,6,7-tetrahydro-5H-imidazo [4,5-c]pyridin-5-yl)-5-isopropyl-1,3,4-oxadiazole]	< 0.5
Cc1cccc2cc([C@H]3c4nc[nH]c4CCN3c3nnc(C(C)(F)F)o3)nn12 [Example 2328, (R)-2-(1,1-difluoroethyl)-5-(4-(7-methylpyrazolo[1,5-a]pyridin-2-yl)-1,4,6,7-tetrahydro-5H-imidazo[4,5-c]pyridin-5-yl)-1,3,4-oxadiazole]	> 5
Cc1ncccc1-c1nnc(N2CCc3[nH]cnc3[C@H]2c2cc3cccc(Cl)n3n2)o1 [Example 2330, (S)-2-(4-(7-chloropyrazolo [1,5-a]pyridin-2-yl)-1,4,6,7-tetrahydro-5H-imidazo [4,5-c]pyridin-5-yl)-5-(2-methylpyridin-3-yl)-1,3,4-oxadiazole]	0.5 to 1
CC(C)c1cccn2nc([C@H]3c4nc[nH]c4CCN3c3nnc(-c4cccnc4F)o3)cc12 [Example 2334, (R)-2-(2-fluoropyridin-3-yl)-5-(4-(4-isopropylpyrazolo[1,5-a]pyridin-2-yl)-1,4,6,7-tetrahydro-5H-imidazo[4,5-c]pyridin-5-yl)-1,3,4-oxadiazole]	> 5
Cc1cccc(-c2nnc(N3CCc4[nH]cnc4[C@H]3c3cc4ccccn4n3)o2)n1 [Example 2342, (S)-2-(6-methylpyridin-2-yl)-5-(4-(pyrazolo[1,5-a]pyridin-2-yl)-1,4,6,7-tetrahydro-5H-imidazo[4,5-c]pyridin-5-yl)-1,3,4-oxadiazole]	1 to 5
Cc1cccc(-c2nnc(N3CCc4[nH]cnc4[C@@H]3c3cc4ccccn4n3)o2)n1 [Example 2343, (R)-2-(6-methylpyridin-2-yl)-5-(4-(pyrazolo[1,5-a]pyridin-2-yl)-1,4,6,7-tetrahydro-5H-imidazo[4,5-c]pyridin-5-yl)-1,3,4-oxadiazole]	> 5
Cc1cccc(-c2nnc(N3CCc4[nH]cnc4[C@@H]3c3cc4c(C(F)F)cccn4n3)o2)n1 [Example 2346, (R)-2-(4-(4-(difluoromethyl)pyrazolo[1,5-a]pyridin-2-yl)-1,4,6,7-tetrahydro-5H-imidazo[4,5-c]pyridin-5-yl)-5-(6-methylpyridin-2-yl)-1,3,4-oxadiazole]	> 5
Cc1cccnc1-c1nnc(N2CCc3[nH]cnc3[C@H]2c2cc3cccc(C(F)F)n3n2)o1 [Example 2352, (S)-2-(4-(7-(difluoromethyl)pyrazolo[1,5-a]pyridin-2-yl)-1,4,6,7-tetrahydro-5H-imidazo [4,5-c]pyridin-5-yl)-5-(3-methylpyridin-2-yl)-1,3,4-oxadiazole]	0.5 to 1

From patent US12673961B2 (Agios Pharmaceuticals, Inc., priority 2022, dated 2026)
